Assay results: PubChem BioAssay AID1918994 (Molecular Pharmacology Branch, DTP, NCI, 2023)
Several values for one entry are separate records, joined by “and”; a condition that tells them apart may be missing. Equal values may be shown once.

System: 292921-168-R-J2-PDC complex spheroid growth
Experiment: Anticancer human tumor 292921-168-R-J2-PDC patient-derived pancreatic carcinoma cell line growth inhibition [AhR]
Settings: for viability, T/C: stronger effect = lower value
Source text: Multicellular complex tumor spheroid response to aryl hydrocarbon receptor antagonists in combination with a variety of drugs and investigational agents in selected tumor cell lines
The current study was undertaken to assess response to aryl hydrocarbon receptor antagonists in combination with standard-of-care drugs and investigational agents in solid tumor complex spheroid models. Complex spheroids include a stromal component modeled by human endothelial cells (HUVEC) and fibroblasts modeled by human mesenchymal stem cells (MSCs). The concentration ranges selected for each drug and investigational agent were based upon clinically achievable concentrations if the clinical Cmax of the agent was known.
Compounds. The drugs and investigational agents: BAY 2416964 (NSC825713), GNF351 (NSC835774), CH-223191 (NSC835775), CPI-455 (NSC825282), aza-TdCyd (NSC777586), decitabine (NSC127716), belinostat (NSC758774), entinostat (NSC756642), pevonedistat (NSC761192), tazemetostat (NSC777109), talazoparib (NSC765396), olaparib (NSC753686), selinexor (NSC780203), nedisertib (M3814, NSC802822), bortezomib (NSC756655), venetoclax (NSC766270), doxorubicin (NSC123127), elimusertib (BAY189344, NSC800525), ceralasertib (AZD6738, NSC777638), TAK-243 (NSC785004), alisertib (NSC759677), etoposide (NSC141540), topotecan (NSC609699), eribulin (NSC707389), gemcitabine (NSC613327), carboplatin (NSC241240), cisplatin (NSC119875), and SN-38 (NSC673596) were obtained from the National Cancer Institute (NCI) Developmental Therapeutics Program Chemical Repository (32). The FDA-approved anticancer drug set is available from the Developmental Therapeutics Program at https://dtp.cancer.gov/organization/dscb/obtaining/available plates.htm. […] The stock solutions were prepared in dimethyl sulfoxide (DMSO, Sigma-Aldrich, St. Louis, MO, cat. D2650), except for the platinum compounds which were prepared in saline (Quality Biological, Gaithersburg, MD, cat. 114-055-101), at 800-fold the tested concentration and stored at -70 degrees C prior to their use. All drugs and investigational agents were tested over a range starting from a high concentration at or near the clinical Cmax and decreasing in half-log increments. If the clinical Cmax for an agent had not been determined, the highest concentration tested was 10 microM (Table 1).
Cell Culture. All cells were maintained in an incubator at 37 degrees C and 5% CO2 with 95% humidity. The PDC lines were cultured according to standard operating procedures established by the NCI PDMR (https://pdmr.cancer.gov). Briefly, all PDCs were thawed and cultured in Matrigel-coated flasks prepared with a working solution of 1X Ham's F-12 nutrient mix, without supplementation (Invitrogen, Waltham, MA, cat. 11765054), 100 U/mL penicillin-streptomycin (Invitrogen, cat. 15140122), and 2.5% Matrigel (Corning Inc., Corning, NY, cat. 354248) for the first three passages. All PDCs were cultured in complete DMEM/F-12 media containing advanced DMEM/F-12 (Invitrogen, cat. 12634028), 4.9% defined fetal bovine serum, heat inactivated (HyClone Laboratories Inc., Logan, UT, cat. SH30070.03HI), 389 ng/mL hydrocortisone (Sigma-Aldrich, cat. H4001), 9.7 ng/mL human EGF recombinant protein (Invitrogen, cat. PHG0313), 23.4 microg/mL adenine (Sigma-Aldrich, cat. A2786), 97.3 U/mL penicillin-streptomycin (Invitrogen, cat. 15140122), 1.9 mM L-glutamine (Invitrogen, cat. 25030081), and 9.7 microM Y-27632 dihydrochloride (Tocris Bioscience, Bristol, United Kingdom, cat. 1254). The PDCs were cultured in complete DMEM/F12 media without 10 microM Y-27632 dihydrochloride for at least two passages prior to the screen. The established cell lines NCI-H1341 and […] were cultured in DMEM/F-12, HEPES (Invitrogen, cat. 11330032), 5% defined fetal bovine serum (HyClone Laboratories Inc., cat. SH30070.03), ITS premix universal culture supplement [insulin (5 microg/mL), transferrin (5 microg/mL), and selenious acid (5 ng/mL)] […]
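Also: spheroids exposed to compounds for seven days after three days of growth.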

| IC50 (curve of compound) | IC50 (compound alone, run of 05/31/2022) | SMILES | viability, T/C (compound 0.000949 µM) | viability, T/C (compound 0.003 µM) | viability, T/C (compound 0.00949 µM) | viability, T/C (compound 0.03 µM) | viability, T/C (compound 0.0949 µM) | viability, T/C (compound 0.3 µM) | viability, T/C (compound 0.0316 µM) | viability, T/C (compound 0.1 µM) | viability, T/C (compound 0.316 µM) | viability, T/C (compound 1 µM) | viability, T/C (compound 3.16 µM) | viability, T/C (compound 10 µM) | viability, T/C (compound 0.00316 µM) | viability, T/C (compound 0.01 µM) |
| --- | --- | --- | --- | --- | --- | --- | --- | --- | --- | --- | --- | --- | --- | --- | --- | --- |
| 10.2 nM and 6.92 nM and 5.94 nM | – | CC(C)CC(NC(=O)C(Cc1ccccc1)NC(=O)c1cnccn1)B(O)O (centres undefined) | 106% and 109% and 104% | 116% and 121% and 106% | 53.1% and 25.4% and 12.2% | 3.87% and 2.27% and 1.64% | 0.72% and 0.67% and 0.85% | 0.4% and 0.5% and 2.3% | – | – | – | – | – | – | – | – |
| > 10000 nM | – | CC(C)c1c(-c2ccccc2)nc2c(C#N)c[nH]n2c1=O | – | – | – | – | – | – | 113% and 103% (2×) | 117% and 104% and 107% | 105% (2×) and 106% | 115% and 91% and 98.9% | 106% and 102% and 99.9% | 95.3% and 96% and 107% | – | – |
| – | > 10000 nM | CC(CO)NC(=O)c1cc(-c2ccc(Cl)cc2)nn(-c2cnn(C)c2)c1=O (centres undefined) | – | – | – | – | – | – | – | 102% [middle of 21 runs] | 98.8% [middle of 21 runs] | 99.2% [middle of 20 runs] | 88.8% [middle of 19 runs] | 70.5% [middle of 19 runs] | – | – |
| 6730 nM and 6620 nM and 6410 nM | – | CC1(C)CCC(CN2CCN(c3ccc(C(=O)NS(=O)(=O)c4ccc(NCC5CCOCC5)c([N+](=O)[O-])c4)c(Oc4cnc5[nH]ccc5c4)c3)CC2)=C(c2ccc(Cl)cc2)C1 | – | – | – | – | – | – | 104% and 92.6% and 102% | 106% and 105% and 104% | 108% and 109% and 97.2% | 106% and 116% and 102% | 102% and 109% and 94% | 22.7% and 18.6% and 22.2% | – | – |
| 58 nM and 54.7 nM and 45.7 nM | – | CC1COCCN1c1cc(-c2ccnn2C)c2ccnc(-c3ccn[nH]3)c2n1 (centres undefined) | – | – | – | – | – | – | 65.1% and 66.1% and 56.9% | 36.3% and 32.1% and 32.4% | 23.2% and 19.6% and 21.7% | 19.2% and 17.7% and 17.8% | – | – | 99.6% and 103% and 96.5% | 90.4% and 97.9% and 92.8% |
